{
  "source": "patent US9085555B2",
  "about": "“Complement pathway modulators and uses thereof” (priority 2011, dated 2015)",
  "data": [
    {"biological_target": "Factor D (Homo sapiens (Human), UniProt P00746)", "sequence (P00746 26-253)": "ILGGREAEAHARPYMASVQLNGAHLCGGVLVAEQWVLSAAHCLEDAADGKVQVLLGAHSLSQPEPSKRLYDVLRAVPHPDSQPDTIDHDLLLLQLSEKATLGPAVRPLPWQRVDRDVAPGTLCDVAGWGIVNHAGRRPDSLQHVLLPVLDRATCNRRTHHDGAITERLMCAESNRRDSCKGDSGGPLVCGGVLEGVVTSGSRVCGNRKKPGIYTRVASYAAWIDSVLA", "assay": "biochemical", "format": "biochemical", "conditions": "not given", "units": {"IC50": "nM"}, "values": [
      {"smiles": "NC(=O)n1cc(NC(=O)N2CC3CC2(C(=O)NCc2cccc(Cl)c2F)C3)c2ccccc21", "note": "[Example 136, 2-Aza-bicyclo[2.1.1]hexane-1,2-dicarboxylic acid 2-[(1-carbamoyl-1H-indol-3-yl)-amide] 1-(3-chloro-2-fluoro-benzylamide)]", "IC50": 17900}
    ]},
    {"biological_target": "Factor D (Homo sapiens (Human), UniProt P00746)", "assay": "biochemical", "format": "biochemical", "conditions": "read-out: IC50", "units": {"IC50": "nM"}, "values": [
      {"smiles": "N#C[C@H]1C[C@@H](C(=O)Nc2cccc(OC(F)(F)F)c2)N(C(=O)Nc2cn(C(N)=O)c3ccccc23)C1", "note": "[Example 125, (2S,4S)-4-Cyano-pyrrolidine-1,2-dicarboxylic acid 1-[(1-carbamoyl-1H-indol-3-yl)-amide]2-[(3-trifluoromethoxy-phenyl)-amide]]", "IC50": 5100},
      {"smiles": "C[C@@H]1CCN(C(=O)Nc2cn(C(N)=O)c3ccccc23)[C@@H]1C(=O)NCc1cccc(Cl)c1F", "note": "[Example 126, (2S,3R)-3-Methyl-pyrrolidine-1,2-dicarboxylic acid 1-[(1-carbamoyl-1H-indol-3-yl)-amide] 2-(3-chloro-2-fluoro-benzylamide)]", "IC50": 100},
      {"smiles": "CC(C)(C)OC(=O)Cc1ccc2c(NC(=O)N3[C@@H]4C[C@@H]4C[C@H]3C(=O)NCc3cccc(Cl)c3F)cn(C(N)=O)c2c1", "note": "[Example 127, (1-Carbamoyl-3-{[(1R,3S,5R)-3-(3-chloro-2-fluoro-benzylcarbamoyl)-2-aza-bicyclo[3.1.0]hexane-2-carbonyl]-amino}-1H-indol-6-yl)-acetic acid tert-butyl ester]", "IC50": 3},
      {"smiles": "CO[C@H]1C[C@@H](C(=O)Nc2cccc(OC(F)(F)F)c2)N(C(=O)Nc2cn(C(N)=O)c3ccccc23)C1", "note": "[Example 128, (2S,4S)-4-Methoxy-pyrrolidine-1,2-dicarboxylic acid 1-[(1-carbamoyl-1H-indol-3-yl)-amide] 2-[(3-trifluoromethoxy-phenyl)-amide]]", "IC50": 2000},
      {"smiles": "CC(=O)n1cc(NC(=O)N2[C@@H]3C[C@@H]3C[C@H]2C(=O)N[C@H](CO)c2cccc(Cl)c2F)c2ccccc21", "note": "[Example 129, (1R,3S,5R)-2-Azabicyclo[3.1.0]hexane-2,3-dicarboxylic acid 2-[(1-acetyl-1H-indol-3-yl)-amide] 3-{[(S)-1-(3-chloro-2-fluoro-phenyl)-2hydroxy-ethyl]-amide}]", "IC50": 4},
      {"smiles": "CNC(=O)n1cc(NC(=O)N2[C@@H]3C[C@@H]3C[C@H]2C(=O)NCc2cccc(Cl)c2F)c2ccccc21", "note": "[Example 130, (1R,3S,5R)-2-Azabicyclo[3.1.0]hexane-2,3-dicarboxylic acid 3-(3-chloro-2-fluoro-benzylamide) 2-[(1-methylcarbamoyl-1H-indol-3-yl)-amide]]", "IC50": 54},
      {"smiles": "COCCOc1ccc2c(c1)c(NC(=O)N1C[C@](C)(F)C[C@H]1C(=O)NCc1cccc(Cl)c1F)cn2C(N)=O", "note": "[Example 132, (2S,4R)-4-Fluoro-methyl-pyrrolidine-1,2-dicarboxylic acid 1-{[1-carbamoyl-5-(2-methoxy-ethoxy)-1H-indol-3-yl]-amide} 2-(3-chloro-2-fluoro-benzylamide)]", "IC50": 18},
      {"smiles": "COC(=O)COc1ccc2c(c1)c(NC(=O)N1[C@@H]3C[C@@H]3C[C@H]1C(=O)NCc1cccc(Cl)c1F)cn2C(N)=O", "note": "[Example 133, (1-carbamoyl-3-{[(1R,3S,5R)-3-(3-chloro-2-fluoro-benzylcarbamoyl)-2-azabicyclo[3.1.0]hexane-2-carbonyl]amino}-1H-indol-5-yloxy)-acetic acid methyl ester]", "IC50": 6},
      {"smiles": "NC(=O)n1cc(NC(=O)N2CC3CC3[C@H]2C(=O)NCc2cccc(Cl)c2F)c2ccccc21", "note": "(stereo partly drawn) [Example 135, (1S,2S,5R)-3-Aza-bicyclo[3.1.0]hexane-2,3-dicarboxylic acid 3-[(1-carbamoyl-1H-indol-3-yl)-amide] 2-(3-chloro-2-fluoro-benzylamide)]", "IC50": 59},
      {"smiles": "NC(=O)n1cc(NC(=O)N2C[C@H](F)C[C@H]2C(=O)NCc2cccc(Br)c2F)c2ccccc21", "note": "[Example 138, (2S,4R)-4-Fluoro-pyrrolidine-1,2-dicarboxylic acid 2-(3-bromo-2-fluoro-benzylamide) 1-[(1-carbamoyl-1H-indol-3-yl)-amide]]", "IC50": 9},
      {"smiles": "CC(=O)NC[C@H]1CC[C@@H](C(=O)Nc2cccc(OC(F)(F)F)c2)N1C(=O)Nc1cn(C(N)=O)c2ccccc12", "note": "[Example 139, (2S,5R)-5-(Acetylamino-methyl)-pyrrolidine-1,2-dicarboxylic acid 1-[(1-carbamoyl-1H-indol-3-yl)-amide] 2-[(3-trifluoromethoxy-phenyl)-amide]]", "IC50": 1500},
      {"smiles": "NC(=O)n1cc(NC(=O)N2C[C@H](F)C[C@H]2C(=O)NCc2cc(C(=O)O)cc(Cl)c2F)c2ccccc21", "note": "[Example 144, 3-({[(2S,4R)-1-(1-carbamoyl-1H-indol-3-ylcarbamoyl)-4-fluoro-pyrrolidine-2-carbonyl]-amino}-methyl)-5-chloro-4-fluoro-benzoic acid]", "IC50": 15},
      {"smiles": "NC(=O)n1cc(NC(=O)N2CC=C[C@H]2C(=O)Nc2cccc(OC(F)(F)F)c2)c2ccccc21", "note": "[Example 145, (S)-2,5-Dihydro-pyrrole-1,2-dicarboxylic acid 1-[(1-carbamoyl-1H-indol-3-yl)-amide] 2-[(3-trifluoromethoxy-phenyl)-amide]]", "IC50": 300},
      {"smiles": "NC(=O)n1cc(NC(=O)N2CC3O[C@@H]3[C@H]2C(=O)NCc2cccc(Cl)c2F)c2ccccc21", "note": "(stereo partly drawn) [Example 146, (1R,2S,5S)-6-Oxa-3-aza-bicyclo[3.1.0]hexane-2,3-dicarboxylic acid 3-[(1-carbamoyl-1H-indol-3-yl)-amide] 2-(3-chloro-2-fluoro-benzylamide)]", "IC50": 9},
      {"smiles": "NC(=O)n1cc(NC(=O)N2C[C@@H](C(F)(F)F)C[C@H]2C(=O)NCc2cccc(Cl)c2F)c2ccccc21", "note": "[Example 147, (2S,4S)-4-Trifluoromethyl-pyrrolidine-1,2-dicarboxylic acid 1-[(1-carbamoyl-1H-indol-3-yl)-amide] 2-(3-chloro-2-fluoro-benzylamide)]", "IC50": 120},
      {"smiles": "NC(=O)n1cc(NC(=O)N2CC[C@@H]3C[C@@]32C(=O)NCc2cccc(Cl)c2F)c2ccccc21", "note": "[Example 149, (1S,5R)-2-Aza-bicyclo[3.1.0]hexane-1,2-dicarboxylic acid 2-[(1-carbamoyl-1H-indol-3-yl)-amide] 1-(3-chloro-2-fluoro-benzylamide)]", "IC50": 10800},
      {"smiles": "CC1(C)SC[C@@H](C(=O)Nc2cccc(OC(F)(F)F)c2)N1C(=O)Nc1cn(C(N)=O)c2ccccc12", "note": "[Example 151, (R)-2,2-Dimethyl-thiazolidine-3,4-dicarboxylic acid 3-[(1-carbamoyl-1H-indol-3-yl)-amide] 4-[(3-trifluoromethoxy-phenyl)-amide]]", "IC50": 9320},
      {"smiles": "N#Cc1ccc(-c2cccc(NC(=O)[C@@H]3CCCN3C(=O)Nc3cn(C(N)=O)c4ccccc34)c2)cc1", "note": "[Example 152, (S)-pyrrolidine-1,2-dicarboxylic acid 1-[(1-carbamoyl-1H-indol-3-yl)amide]2-[(4′-cyano-biphenyl-3-yl)-amide]]", "IC50": 4400},
      {"smiles": "COC(=O)c1cc(Br)cc(NC(=O)[C@@H]2C[C@@H](F)CN2C(=O)Nc2cn(C(N)=O)c3ccccc23)c1", "note": "[Example 153, 3-Bromo-5-{[(2S,4R)-1-(1-carbamoyl-1H-indol-3-ylcarbamoyl)-4-fluoro-pyrrolidine-2-carbamoyl]-amino}-benzoic acid methyl ester]", "IC50": 55},
      {"smiles": "CN(C)CCNC(=O)c1cc(Cl)c(F)c(CNC(=O)[C@@H]2C[C@@H](F)CN2C(=O)Nc2cn(C(N)=O)c3ccccc23)c1", "note": "[Example 154, (2S,4R)-4-Fluoro-pyrrolidine-1,2-dicarboxylic acid 1-[(1-carbamoyl-1H-indol-3-yl)-amide] 2-[3-chloro-5-(2-dimethylamino-ethyl-carbamoyl)-2-fluoro-benzylamide]]", "IC50": 1370},
      {"smiles": "NC(=O)n1cc(NC(=O)N2C3CC3C[C@H]2C(=O)NCc2ccc(Cl)s2)c2ccccc21", "note": "(stereo partly drawn) [Example 155, (1R,3S,5R)-2-Aza-bicyclo[3.1.0]hexane-2,3-dicarboxylic acid 2-[(1-carbamoyl-1H-indol-3-yl)-amide] 3-[(5-chloro-thiophen-2-ylmethyl)-amide]]", "IC50": 20},
      {"smiles": "COC(=O)c1ccc(NC(=O)[C@@H]2C[C@@H](F)CN2C(=O)Nc2cn(C(N)=O)c3ccccc23)cc1Br", "note": "[Example 156, 2-Bromo-4-{[(2S,4R)-1-(1-carbamoyl-1H-indol-3-ylcarbamoyl)-4-fluoro-pyrrolidine-2-carbonyl]-amino}-benzoic acid methyl ester]", "IC50": 150},
      {"smiles": "CCc1cccc(NC(=O)[C@@H]2CC3CC3N2C(=O)Nc2cn(C(N)=O)c3ccccc23)n1", "note": "(stereo partly drawn) [Example 158, (1R,3S,5R)-2-Aza-bicyclo[3.1.0]hexane-2,3-dicarboxylic acid 2-[(1-carbamoyl-1H-indol-3-yl)-amide] 3-[(6-ethyl-pyridin-2-yl)-amide]]", "IC50": 80},
      {"smiles": "NC(=O)n1cc(NC(=O)N2C[C@H](F)C[C@H]2C(=O)Nc2cc(Br)cc(C(=O)O)c2)c2ccccc21", "note": "[Example 159, 3-bromo-5-{[(2S,4R)-1-(1-carbamoyl-1H-indol-3-ylcarbamoyl)-4-fluoro-pyrrolidine-2-carbonyl]-amino}-benzoic acid]", "IC50": 55},
      {"smiles": "CC(C)(C)c1csc(NC(=O)[C@@H]2CCCN2C(=O)Nc2cn(C(N)=O)c3ccccc23)n1", "note": "[Example 160, (S)-Pyrrolidine-1,2-dicarboxylic acid 2-[(4-tert-butyl-thiazol-2-yl)-amide] 1-[(1-carbamoyl-1H-indol-3-yl)-amide]]", "IC50": 1400},
      {"smiles": "NC(=O)n1cc(NC(=O)N2CSC[C@H]2C(=O)Nc2cccc(OC(F)(F)F)c2)c2ccccc21", "note": "[Example 161, (R)-Thiazolidine-3,4-dicarboxylic acid 3-[(1-carbamoyl-1H-indol-3-yl)-amide] 4-[(3-trifluoromethoxy-phenyl)-amide]]", "IC50": 987},
      {"smiles": "COCCOc1ccc2c(c1)c(NC(=O)N1C3CC3C[C@H]1C(=O)NCc1cccc(Cl)c1F)cn2C(N)=O", "note": "(stereo partly drawn) [Example 162, (1R,3S,5R)-2-Aza-bicyclo[3.1.0]hexane-2,3-dicarboxylic acid 2-{[1-carbamoyl-5-(2-methoxy-ethoxy)-1H-indol-3-yl]-amide} 3-(3-chloro-2-fluoro-benzylamide)]", "IC50": 5},
      {"smiles": "CCc1cccc(NC(=O)[C@@H]2C[C@@H](F)CN2C(=O)Nc2cn(C(N)=O)c3ccccc23)n1", "note": "[Example 163, (2S,4R)-4-Fluoro-pyrrolidine-1,2-dicarboxylic acid 1-[(1-carbamoyl-1H-indol-3-yl)-amide] 2-[(6-ethyl-pyridin-2-yl)-amide]]", "IC50": 100}
    ]}
  ]
}
